# Measurements from US11360080B2, “AhR-ROR-γt complex as a biomarker and therapeutic target for autoimmune disease and IL-17A-associated disease” (NATIONAL HEALTH RESEARCH INSTITUTES, priority 2018, dated 2022).
# Where a name gives a salt, the structure may show the parent alone.
# Key:
# [1] = system: GLK-induced NF-κB-luciferase activity; experiment: NF-κB-driven luciferase reporter assay in CHO-GLK-Luc cells; format: cell-based; details: stable GLK-transfected CHO-K1 cells
# Description: (A) Luciferase activity of NF-κB-driven reporter assays in stable GLK-transfected CHO-K1 cells that were treated with or without the GLK inhibitor C1 (verteporfin) under the indicated concentration. The fold changes are presented relative to the value of vector control. (B) Recombinant proteins of GLK kinase domain plus recombinant proteins of GST-tagged kinase-dead PKCθ (K409W) were subjected to in vitro kinase assays in the presence or absence of the GLK inhibitor C1 (verteporfin). Means±SD of are shown. *, P value<0.05; **, P value<0.01 (two-tailed Student's t-test). (C) The AhR-RORγt complex was inhibited by the GLK inhibitor. Confocal microscopy of proximity ligation assays (PLA) for the interaction between AhR and either RORγt or phospho-RORγt (S489) in peripheral blood T cells treated with C1 (verteporfin) (5 μM) for 30 min. The T cells were freshly isolated from 4 SLE patients and 1 RA patients. C1 denotes verteporfin; C2 denotes alexidine dihydrochloride. (D) Quantification of the PLA signals of (C). (E) FRET assays of HEK293T cells co-transfected with CFP-AhR, YFP-RORγt, and IKKβ plasmids.
# Cell-based high-throughput screening was conducted against a representative library of 100,000 molecules at ˜10 μM. CHO-GLK-Luc cells expressing GLK and NF-κB-luciferase reporter were used. […] This high-throughput screening campaign was successful with a determined Z′ factor of 0.57˜0.60. […]
# [2] = system: splenic T cells (Th17 differentiation); experiment: In vitro Th17 differentiation, flow cytometry of IL-17A-producing CD4+ T cells; format: cell-based, mouse; details: 1 or 5 μM during differentiation
# Description: (A) Flow cytometry of IL-17A-producing CD4^+ T cells. Splenic T cells were co-treated with verteporfin (C1) (1 or 5 μM) during Th17 differentiation in vitro. (B) Flow cytometry of IL-17A-producing CD4^+ T cells. Murine in vitro differentiated Th17 cells were stimulated with PMA plus ionomycin and co-treated with verteporfin (C1) (1 or 5 μM) for 30 min. (C) Flow cytometry of Foxp3-producing […] T cells. Splenic T cells were co-treated with verteporfin (C1) (5 μM) during Treg differentiation in vitro. (D) Flow cytometry of Foxp3-producing CD4^+ T cells, which were differentiated from CD4^+ T cells of wild-type or Lck-GLK transgenic mice.
# CD4^+ splenic T cells were purified from mice. Cells (5×10^5) were cultured in 1 ml RPMI medium in 48-well plates coated with anti-CD3 (2 μg/ml) and anti-CD28 (3 μg/ml) antibodies. For Th17 differentiation, splenic CD4^+ cells were cultured in the medium containing IL-23 recombinant proteins (50 ng/ml, R&D), IL-6 recombinant proteins (20 ng/ml, R&D), TGF-β recombinant proteins (5 ng/ml, R&D), anti-IL-4 (5 μg/ml, Biolegend), and anti-IFN-γ (5 μg/ml, Biolegend) antibodies. For Th1 differentiation, CD4^+ splenic cells were cultured in the medium containing IL-12 recombinant proteins (5 ng/ml, R&D) and anti-IL-4 antibodies (1 μg/ml, Biolegend).
# [3] = system: LLC/luc cells; experiment: LLC/luc metastatic lung cancer mouse model; format: in vivo; details: C1 0.556 nmole/g, C2 0.085 nmole/g i.v. every 3 days for 30 days
# Description: (A) The molecular docking of GLK kinase domain structure with C1 (verteporfin). A three-dimensional structure model depicts the binding of C1 to the predicted GLK kinase domain containing phosphorylated Ser-170. The putative binding affinity was −7.4 kcal/mol. (B) The molecular docking of GLK kinase domain structure with C2 (alexidine dihydrochloride). A three-dimensional structure model depicts the binding of C2 to the predicted GLK kinase domain containing phosphorylated Ser-170. The putative binding affinity was −7.0 kcal/mol. (C) Co-immunoprecipitation (co-IP) of Flag-tagged GLK and GFP-fusion GLK using lysates of HEK293T cells co-transfected with Flag-GLK and GFP-GLK plasmids. Cells were treated with C1 (verteporfin) or C2 (alexidine dihydrochloride). (D) Administration of the GLK inhibitor C1 (0.556 nmole/g) or C2 (0.085 nmole/g) every 3 days for 30 days in the LLC/luc metastatic lung cancer mouse model. (E) The luciferase activity in mice treated with C1 (verteporfin), C2 (alexidine dihydrochloride), or vehicle was detected by IVIS Spectrum. (F) Luminescent intensity of photons emitted from LLC/luc cells in the images in (e) was quantified. (G) Representative immunohistochemistry of H&E in lung tissues from mice treated with C1 (verteporfin), C2, or vehicle. Scale bar, 0.5 cm. (H) In situ PLA assays of the interaction between GLK and IQGAP1 (upper panel) or phosphorylated IQGAP1 Ser-480 (lower panel) in lung tissues from mice treated with C1 (verteporfin), C2 (alexidine dihydrochloride), or vehicle in the LLC/luc metastatic lung cancer mouse model. Original magnification, ×40. We studied whether GLK inhibitors also suppress cancer cell migration. […] Moreover, both C1 (verteporfin) and C2 (alexidine dihydrochloride) treatments suppressed tumor growth in the xenograft mouse model using TC-1 lung cancer cells (FIG. 15). To study whether GLK deficiency results in a reduction of lung cancer metastasis, we used a metastatic Lewis lung carcinoma (LLC) mouse model by tail vein injection of luciferase-expressing LLC (LLC/luc) cells. We identified two GLK inhibitors (verteporfin and alexidine dihydrochloride)) using cell-based assays and in vitro kinase assays. […] The dimerization of Flag-tagged GLK protein and GFP-GLK fusion protein was indeed blocked by the C1 (verteporfin) treatment (FIG. 16C). We treated the LLC/luc cells-containing mice with the GLK inhibitor C1 (verteporfin) or C2 (alexidine dihydrochloride) by intravenous injection every 3 days for 30 days (FIG. 16D). The luciferase activity of LLC/luc cells in the mice was detected by In Vivo Imaging System. The excised lungs were weighed and subjected to H&E staining. […] Inhibition of kinase activity of GLK (MAP4K3) or other MAP4Ks was determined by in vitro kinase assays using myelin basic protein (MBP) as a substrate. […]
SMILES,GLK signaling in cell lines (luciferase reporter) [1],Th17 differentiation [2],cancer colony in lung (histology) [3],luciferase activity of LLC/luc cells in the lung [3]
"C=Cc1c(C)c2cc3nc(cc4[nH]c(cc5nc(cc1[nH]2)C(C)=C5CCC(=O)O)c(CCC(=O)OC)c4C)[C@@]1(C)C3=CC=C(C(=O)OC)[C@H]1C(=O)OC [C1, verteporfin]",efficiently inhibited,inhibited,reduction,reduced
"CCCCC(CC)CNC(=N)NC(=N)NCCCCCCNC(=N)NC(=N)NCC(CC)CCCC (stereo not shown) [C2, alexidine dihydrochloride]",efficiently inhibited,–,reduction,reduced
